Data taken from patent US12344646B2, “Antibody-TNF α fusion protein and its preparation and applications” (priority 2018, dated 2025).
Starred links: 1 amine or outer side, 2 acyl side, 3 side chain; linkers in the order of their positions; H or OH if unused. Positions of bridges follow the written chain, without caps; N, C: chain ends. Non-standard residues stand in square brackets, D forms with d. Residues, ends and D or L forms follow the SMILES beside them. Chains are numbered I, II in the order given. Actinocin(9to1) = Cc1c2oc3c(C)ccc(C(=O)[*:1])c3nc-2c(C(=O)[*:2])c(N)c1=O; NMeV = CN[C@H](C(=O)O)C(C)C; Sar = CNCC(=O)O

Assays:
[1] = system: NCI-N87 cells; experiment: Synergistic apoptosis with chemotherapeutic, NCI-N87; format: cell-based, human; parameters: effect on viability of NCI-N87 cells: dose or concentration left out as unconfirmed
Description: FIG. […]
(§1) In the following, the Her-2 positive tumor cells were all obtained from the Cell Bank of the Chinese Academy of Sciences. […] Cell viability was detected by MTT assay.

[2] = system: SKBR-3 cells; experiment: Synergistic apoptosis with chemotherapeutic, SKBR-3; format: cell-based, human; details: 15 nM actinomycin D alone
Description: (§2) FIG. 9A: Her-2 positive human tumor cells (NCI-N87, SKBR-3 and SKOV-3) were cultured in the presence of the fusion protein, actinomycin D or both for 1 day; and cell viability was detected using a CCK-8 kit.
as §1

[3] = system: SKOV-3 cells; experiment: Synergistic apoptosis with chemotherapeutic, SKOV-3; format: cell-based, human; details: 15 nM actinomycin D alone
Description: as §2, §1

[4] = system: Her-2 positive human gastric cancer cells NCI-N87; experiment: Cytotoxicity of Her-2 antibody-TNFα fusion protein on NCI-N87 cells; format: cell-based; details: at concentrations corresponding to the fusion protein below 20 ng/ml
Description: FIG. 7A: the NCI-N87 cells were incubated with the antibody-TNFα fusion protein at different concentrations for 1 day; and cell survival was detected using a CCK-8 kit.
The day before experiment, the cells ([…]) in growth medium (150 μl) were added onto a 96-well plate. […] Cell viability was detected using MTT assay and cell viability using CCK-8.

[5] = system: BT-474 cells; experiment: Synergistic apoptosis with chemotherapeutic, BT-474; format: cell-based, human; details: 33 μM or 11 μM doxorubicin alone

Cc1c2oc3c(C)ccc(C(=O)N[C@@H]4C(=O)N[C@H](C(C)C)C(=O)N5CCC[C@H]5C(=O)N(C)CC(=O)N(C)[C@@H](C(C)C)C(=O)O[C@@H]4C)c3nc-2c(C(=O)N[C@@H]2C(=O)N[C@H](C(C)C)C(=O)N3CCC[C@H]3C(=O)N(C)CC(=O)N(C)[C@@H](C(C)C)C(=O)O[C@@H]2C)c(N)c1=O [actinomycin D] (I: T[dV]P[Sar][NMeV] / II: T[dV]P[Sar][NMeV]; ester I:1-I:C, II:1-II:C; linker I:N-II:N via Actinocin(9to1))
apoptosis in NCI-N87 cells ([1]; 15 nM actinomycin D alone): 25%
apoptosis in SKBR-3 cells [2]: 70%
impact on survival of SKOV-3 cells [3]: Neither 100 ng/ml of Trastuzumab-TNFα fusion protein nor 15 nM of actinomycin D, when used alone, had an impact on survival of SKOV-3 cells

TNFα
apoptosis in NCI-N87 cells [4]: induced no or little apoptosis

COc1cccc2c1C(=O)c1c(O)c3c(c(O)c1C2=O)C[C@@](O)(C(=O)CO)C[C@@H]3O[C@H]1C[C@H](N)[C@H](O)[C@H](C)O1 [doxorubicin]
effect on viability of NCI-N87 cells [1]: little effect on viability
effect on viability of BT-474 cells [5]: little effect on viability
